Laboratory results from patent publication US20220257592A1, “METHODS OF TREATING CANCER” (HOFFMANN-LA ROCHE INC., priority 2019, published 2022).
Marks after values point to notes of the source that are not given here.

Experiment: Clinical trial safety, integrated analysis of ALKA, STARTRK-1, STARTRK-2, STARTRK-NG (N=504)
Text: The following categories of frequency have been used: very common ≥1/10, common (≥1/100 to <1/10), uncommon (≥1/1,000 to <1/100), rare (≥1/10,000 to <1/1000), very rare (<1/10,000).

[1] = patients less than 65 years old

CN1CCN(c2ccc(C(=O)Nc3n[nH]c4ccc(Cc5cc(F)cc(F)c5)cc34)c(NC3CCOCC3)c2)CC1 [Entrectinib, N-[5-(3,5-difluorobenzyl)-1H-indazol-3-yl]-4-(4-methyl-piperazin-1-yl)-2-(tetrahydro-pyran-4-ylamino)-benzamide]
Laboratory: Hyperuricemia, Change from Baseline All Grades (N = 382): 50.8%
Laboratory: Hyperuricemia, Change from Baseline to Grade 3 or 4 (N = 382): 6.8%
Laboratory: Decreased Neutrophils, Change from Baseline All Grades (N = 457): 27.8%
Laboratory: Decreased Neutrophils, Change from Baseline to Grade 3 or 4 (N = 457): 6.3%
Laboratory: Increased AST, Change from Baseline All Grades (N = 478): 43.3%
Laboratory: Increased AST, Change from Baseline to Grade 3 or 4 (N = 478): 3.3%
Laboratory: Increased ALT, Change from Baseline All Grades (N = 479): 38.4%
Laboratory: Increased ALT, Change from Baseline to Grade 3 or 4 (N = 479): 3.1%
Laboratory: Increased Blood Creatinine, Change from Baseline All Grades (N = 480): 94.8%
Laboratory: Increased Blood Creatinine, Change from Baseline to Grade 3 or 4 (N = 480): 3.1%
Laboratory: Decreased Hemoglobin, Change from Baseline All Grades (N = 487): 65.7%
Laboratory: Decreased Hemoglobin, Change from Baseline to Grade 3 or 4 (N = 487): 9.2%
ALT increased, All Grades (N = 504): 16.1%
ALT increased, Frequency Category (All Grades) (N = 504): very common (very common ≥1/10)
ALT increased, Grade ≥3 (N = 504): 3.4%
AST increased, All Grades (N = 504): 17.5%
AST increased, Frequency Category (All Grades) (N = 504): very common (very common ≥1/10)
AST increased, Grade ≥3 (N = 504): 3.6%
Abdominal pain, All Grades (N = 504): 11.1%
Abdominal pain, Frequency Category (All Grades) (N = 504): very common (very common ≥1/10)
Abdominal pain, Grade ≥3 (N = 504): 0.6%
Anemia, All Grades (N = 504): 28.2%
Anemia, Frequency Category (All Grades) (N = 504): very common (very common ≥1/10)
Anemia, Grade ≥3 (N = 504): 9.7%
Arthralgia, All Grades (N = 504): 19.0%
Arthralgia, Frequency Category (All Grades) (N = 504): very common (very common ≥1/10)
Arthralgia, Grade ≥3 (N = 504): 0.6%
Ataxia, Frequency Category (All Grades) (N = 504): very common (very common ≥1/10)
Ataxia, Grade ≥3 (N = 504): 0.8%
Blood creatinine increased, All Grades (N = 504): 25.4%
Blood creatinine increased, Frequency Category (All Grades) (N = 504): very common (very common ≥1/10)
Blood creatinine increased, Grade ≥3 (N = 504): 0.6%
Cognitive Disorders, All Grades (N = 504): 24.2%
Cognitive Disorders, Frequency Category (All Grades) (N = 504): very common (very common ≥1/10)
Cognitive Disorders, Grade ≥3 (N = 504): 4.4%
Congestive Heart Failure, All Grades (N = 504): 3.0%
Congestive Heart Failure, Frequency Category (All Grades) (N = 504): common (common (≥1/100 to <1/10))
Congestive Heart Failure, Grade ≥3 (N = 504): 2.2%
Constipation, All Grades (N = 504): 42.9%
Constipation, Frequency Category (All Grades) (N = 504): very common (very common ≥1/10)
Constipation, Grade ≥3 (N = 504): 0.4%
Cough, All Grades (N = 504): 21.4%
Cough, Frequency Category (All Grades) (N = 504): very common (very common ≥1/10)
Cough, Grade ≥3 (N = 504): 0.6%
Decreased appetite, All Grades (N = 504): 11.9%
Decreased appetite, Frequency Category (All Grades) (N = 504): very common (very common ≥1/10)
Decreased appetite, Grade ≥3 (N = 504): 0.2%
Dehydration, All Grades (N = 504): 7.9%
Dehydration, Frequency Category (All Grades) (N = 504): common (common (≥1/100 to <1/10))
Dehydration, Grade ≥3 (N = 504): 1.0%
Diarrhea, All Grades (N = 504): 33.5%
Diarrhea, Frequency Category (All Grades) (N = 504): very common (very common ≥1/10)
Diarrhea, Grade ≥3 (N = 504): 2.6%
Dizziness, All Grades (N = 504): 39.7%
Dizziness, Frequency Category (All Grades) (N = 504): very common (very common ≥1/10)
Dizziness, Grade ≥3 (N = 504): 1.2%
Dysasthesia, All Grades (N = 504): 29.0%
Dysasthesia, Frequency Category (All Grades) (N = 504): very common (very common ≥1/10)
Dysasthesia, Grade ≥3 (N = 504): 0.2%
Dysgeusia, All Grades (N = 504): 42.3%
Dysgeusia, Frequency Category (All Grades) (N = 504): very common (very common ≥1/10)
Dysgeusia, Grade ≥3 (N = 504): 0.4%
Dysphagia, All Grades (N = 504): 10.1%
Dysphagia, Frequency Category (All Grades) (N = 504): very common (very common ≥1/10)
Dysphagia, Grade ≥3 (N = 504): 0.4%
Dyspnea, All Grades (N = 504): 27.0%
Dyspnea, Frequency Category (All Grades) (N = 504): very common (very common ≥1/10)
Edema, All Grades (N = 504): 37.3%
Edema, Frequency Category (All Grades) (N = 504): very common (very common ≥1/10)
Edema, Grade ≥3 (N = 504): 1.4%
Electrocardiogram QT prolonged, All Grades (N = 504): 2.0%
Electrocardiogram QT prolonged, Grade ≥3 (N = 504): 0.6%
Fatigue, All Grades (N = 504): 45.0%
Fatigue, Frequency Category (All Grades) (N = 504): very common (very common ≥1/10)
Fatigue, Grade ≥3 (N = 504): 5.0%
Fractures, All Grades (N = 504): 6.2%
Fractures, Frequency Category (All Grades) (N = 504): common (common (≥1/100 to <1/10))
Fractures, Grade ≥3 (N = 504): 2.4%
Headache, All Grades (N = 504): 17.5%
Headache, Frequency Category (All Grades) (N = 504): very common (very common ≥1/10)
Headache, Grade ≥3 (N = 504): 1.0%
Hyperuricemia, All Grades (N = 504): 9.1%
Hyperuricemia, Frequency Category (All Grades) (N = 504): common (common (≥1/100 to <1/10))
Hyperuricemia, Grade ≥3 (N = 504): 1.8%
Hypotension, All Grades (N = 504): 16.5%
Hypotension, Frequency Category (All Grades) (N = 504): very common (very common ≥1/10)
Hypotension, Grade ≥3 (N = 504): 2.4%
Lung infection, All Grades (N = 504): 13.1%
Lung infection, Frequency Category (All Grades) (N = 504): very common (very common ≥1/10)
Mood disorders, All Grades (N = 504): 9.1%
Mood disorders, Frequency Category (All Grades) (N = 504): common (common (≥1/100 to <1/10))
Mood disorders, Grade ≥3 (N = 504): 0.6%
Muscular weakness, All Grades (N = 504): 12.3%
Muscular weakness, Frequency Category (All Grades) (N = 504): very common (very common ≥1/10)
Muscular weakness, Grade ≥3 (N = 504): 1.2%
Myalgia, All Grades (N = 504): 19.6%
Myalgia, Frequency Category (All Grades) (N = 504): very common (very common ≥1/10)
Myalgia, Grade ≥3 (N = 504): 0.6%
Nausea, All Grades (N = 504): 32.1%
Nausea, Frequency Category (All Grades) (N = 504): very common (very common ≥1/10)
Nausea, Grade ≥3 (N = 504): 0.8%
Neutropenia, All Grades (N = 504): 11.3%
Neutropenia, Frequency Category (All Grades) (N = 504): very common (very common ≥1/10)
Neutropenia, Grade ≥3 (N = 504): 4.4%
Pain, All Grades (N = 504): 24.4%
Pain, Frequency Category (All Grades) (N = 504): very common (very common ≥1/10)
Pain, Grade ≥3 (N = 504): 1.6%
Peripheral Sensory Neuropathy, Frequency Category (All Grades) (N = 504): very common (very common ≥1/10)
Peripheral sensory neuropathy, All Grades (N = 504): 15.7%
Peripheral sensory neuropathy, Grade ≥3 (N = 504): 1.0%
Pyrexia, All Grades (N = 504): 20.0%
Pyrexia, Frequency Category (All Grades) (N = 504): very common (very common ≥1/10)
Pyrexia, Grade ≥3 (N = 504): 0.8%
Rash, All Grades (N = 504): 11.5%
Rash, Frequency Category (All Grades) (N = 504): very common (very common ≥1/10)
Rash, Grade ≥3 (N = 504): 1.4%
Sleep disturbances, All Grades (N = 504): 13.5%
Sleep disturbances, Frequency Category (All Grades) (N = 504): very common (very common ≥1/10)
Sleep disturbances, Grade ≥3 (N = 504): 0.4%
Syncope, All Grades (N = 504): 4.6%
Syncope, Frequency Category (All Grades) (N = 504): common (common (≥1/100 to <1/10))
Syncope, Grade ≥3 (N = 504): 3.0%
Tumor lysis syndrome, All Grades (N = 504): 0.2%
Tumor lysis syndrome, Frequency Category (All Grades) (N = 504): uncommon (uncommon (≥1/1,000 to <1/100))
Urinary tract infection, All Grades (N = 504): 12.7%
Urinary tract infection, Frequency Category (All Grades) (N = 504): very common (very common ≥1/10)
Urinary tract infection, Grade ≥3 (N = 504): 2.6%
Vision Blurred, Frequency Category (All Grades) (N = 504): very common (very common ≥1/10)
Vision Blurred, Grade ≥3 (N = 504): 0.4%
Vomiting, All Grades (N = 504): 23.2%
Vomiting, Frequency Category (All Grades) (N = 504): very common (very common ≥1/10)
Vomiting, Grade ≥3 (N = 504): 1.2%
Weight increased, All Grades (N = 504): 26.4%
Weight increased, Frequency Category (All Grades) (N = 504): very common (very common ≥1/10)
Weight increased, Grade ≥3 (N = 504): 7.3%
Ataxia, All Grades (N = 504, ataxia, balance disorder, gait disturbances): 15.7%
Vision Blurred, All Grades (N = 504, diplopia, vision blurred, visual impairment): 11.9%
Entrectinib interrupted due to fractures (adult patients): 36.0%
Grade 3 or 4 bone fractures (adult patients): 1.9%
Grade 3 or 4 headache (adult patients): 0.6%
Grade 3 or 4 neutropenia (adult patients): 3.4%
Grade 3 or 4 weight increased (adult patients): 6.9%
Fractures (adult patients (N=475)): 5.3%
Median time to fracture (adults, range: 0.26 months to 18.5 months): 3.42 months
Ataxia (elderly (65 years or older)): 23.8%
Blood creatinine increased (elderly (65 years or older)): 31.5%
Dizziness (elderly (65 years or older)): 48.5%
Hypotension (elderly (65 years or older)): 21.5%
Bilateral femoral neck fractures (human, in vivo): 2 pediatric patients
Cognitive disorders, Grade 3 events (human, in vivo): 4.4%
Cognitive symptoms: amnesia (human, in vivo): 2.8%
Cognitive symptoms: cognitive disorders (human, in vivo): 6.3%
Cognitive symptoms: confusional state (human, in vivo): 7.3%
Cognitive symptoms: delirium (human, in vivo): 0.8%
Cognitive symptoms: disturbance in attention (human, in vivo): 3.8%
Cognitive symptoms: hallucination (human, in vivo): 1.0%
Cognitive symptoms: hallucination visual (human, in vivo): 0.4%
Cognitive symptoms: memory impairment (human, in vivo): 4.2%
Cognitive symptoms: mental disorder (human, in vivo): 0.2%
Cognitive symptoms: mental status changes (human, in vivo): 1.2%
Discontinuation due to fractures (human, in vivo): No patients discontinued
Eye disorders: diplopia (human, in vivo): 2.6%
Eye disorders: vision blurred (human, in vivo): 8.5%
Eye disorders: visual impairment (human, in vivo): 1.6%
Overall safety profile in elderly patients vs patients younger than 65 years (human, in vivo): similar
Patients recovered from ataxia (human, in vivo): 67.1%
Patients recovered from peripheral neuropathy (human, in vivo): 55.7%
Patients recovered from the eye disorder events (human, in vivo): 61.7%
Dyspnea, Grade ≥3 (human, in vivo, 5.5 months): 5.8* %
Lung infection, Grade ≥3 (human, in vivo, 5.5 months): 6.0* %
Tumor lysis syndrome, Grade ≥3 (human, in vivo, 5.5 months): 0.2* %
Ataxia [1]: 12.8%
Blood creatinine increased [1]: 23.3%
Dizziness [1]: 36.6%
Hypotension [1]: 14.7%
QTcF interval of ≥500 ms (patients with at least one post-baseline ECG assessment, 12 patients): 2.8%
QTcF interval prolongation of >60 ms after starting entrectinib (patients with at least one post-baseline ECG assessment, 17 patients): 4.0%
Cognitive disorder events (patients with brain metastases at baseline): 29.7%
Cognitive disorder events (patients without brain metastases): 23.1%
Entrectinib interrupted due to fractures (pediatric patients): 33.3%
Grade 3 or 4 bone fractures (pediatric patients): 12.5%
Grade 3 or 4 headache (pediatric patients): 6.3%
Grade 3 or 4 neutropenia (pediatric patients): 28.1%
Grade 3 or 4 weight increased (pediatric patients): 21.9%
Fractures (pediatric patients (N=29)): 20.7%
Median time to fracture (pediatric patients, range: 1.77 months to 7.39 months): 3.38 months
Disturbance in attention of Grade 1 severity (pediatric population (1/29)): 3.4%
Eye disorders, median duration (range 0.03 months to 14.49 months): 1.02 months
Peripheral sensory neuropathy, median time to onset (range 0.03 months to 20.93 months): 0.49 months
Ataxia, median duration (range: 0.03 months to 11.99 months): 0.66 months
Eye disorders, median time to onset (range: 0.03 months to 21.59 months): 1.87 months
Ataxia, median time to onset (range: 0.03 months to 28.19 months): 0.36 months
Peripheral sensory neuropathy, median duration (range: 0.07 months to 6.01 months): 0.76 months
